In patent publication US5409709A (priority 1991, dated 1995):

Assays:
[1] = system: pain threshold; assay: Analgesic action (pressure stimulation of tail base, rise ratio of pain threshold); format: in vivo, Wistar strain male rats
Experimental: Test medication A consisted of a suspension of Acasia used as the control. The other test medications contained the ingredients listed in the Table below, and were suspended in Acasia solution. These test medications were administered orally at a volume of 1 ml/100 g B.W. A pressure stimulation device (Analgesy-meter Model TK-201, Unicom) was used to apply pressure to the base of the tails of the animals. A pain threshold of […] was selected for the experimented animal based on parameters of reaction to temporary pain consisting of writhing, fleeing and squealing. The pain threshold was measured prior to oral administration of each test medication as well as at 30 and 120 minutes after administration. The ratio of the rise in the pain threshold at 30 and 120 minutes after administration was calculated from comparison with that before administration.

[2] = system: writhing syndrome; assay: Analgesic action (acetic acid writhing syndrome); format: in vivo, ddY strain male mice; conditions: oral, mouse; in terms of the amount of analgesic antipyretic ingredient
[3] = system: body temperature (pyrogenic area, yeast); assay: Antipyretic action (yeast-induced fever); format: in vivo, Wistar strain male rats; conditions: oral, rat, up to 6 h; in terms of the amount of the antipyretic analgesic ingredient

Compound: CC(C)Cc1ccc(C(C)C(=O)O)cc1 (stereo not shown) [Ibuprofen, 2-(4-isobutylphenyl)propionic acid]
- Pain threshold at 30 minutes (in words) ([1]; 30 minutes after administration): a remarkable rise was observed
- Pain threshold at 120 minutes (in words) ([1]; 120 minutes after administration): essentially equal to that before administration
- ED50 [2]: 137 mg/kg
- ED50 [3]: 20.4 mg/kg
